# Experimental data from US20230219957A1, “SMALL MOLECULE CB002-ANALOGES RESTORE THE P53 PATHWAY AND TARGET S-PHASE CHECKPOINT” (Brown University, priority 2020, published 2023).
# Experiments:
# [1] = test system: SW480 colon cancer cells; assay: Propidium iodide / BrdU cell cycle analysis of synchronized cells; assay type: cell-based, human; conditions: all time points, versus DMSO vehicle control
# Experimental: (§1) Cell synchronization. Synchronized cells were synchronized by double thymidine block. Cells were treated with […] thymidine for sixteen hours. The drug was removed and replaced by complete growth media for eight hours. Cells were treated for the second time with […] thymidine for sixteen hours. At this point, cells were treated and harvested.
# Propidium iodide and BrdU flow cytometry assay. Cells were seeded at a density of 5×10^5 in a 6-well plate and treated for forty-eight to seventy-two hours. After treatment, floating cells were collected, and adherent cells were trypsinized, pelleted, washed with phosphate-buffered saline, and fixed in 70% ethanol overnight. For propidium iodide (PI) based Sub-G1 apoptosis analysis, cells were spun down after fixation and resuspended in phosphate-citric acid buffer (0.2M Na2HPO4+0.1M Citric Acid, pH 7.8) at room temperature for five minutes. The cell pellet was resuspended for staining with 50 μg/mL PI and 250 μg/mL ribonuclease (RNase A). For BrdU analysis, after cell fixation, cells were spun down and resuspended in one mL of 2N HCL with 0.5% Triton X-100 for thirty minutes at room temperature. Cells were pelleted, washed with phosphate-buffered saline, and resuspended in 20 μL BrdU antibody (BD Biosciences, cat no. 347580) diluted in 0.5% Tween 20/PBS/5% bovine serum albumin for thirty minutes at room temperature. Cells were then spun down and resuspended in 140 μg/mL goat-anti mouse Alexa Fluor 488 (#A-11008, Thermo Fisher Scientific, Waltham, Mass., USA) in 0.5% Tween 20 in phosphate-buffered saline/5% bovine serum albumin for thirty minutes at room temperature. Cells were then spun down and resuspended in 5 μg/mL PI: 250 μg/mL RNase A solution. Samples were analyzed on an Epics Elite Epics flow cytometer (Coulter-Beckman).
# BrdU analysis gating. Cell aggregates were gated out in the PI Peak vs DNA PI histogram. BrdU lower limit intensity was set on the upper limit of the negative control. The no BrdU antibody assays and no goat-anti mouse Alexa Fluor 488 antibody assays were the negative controls. […] Gating was held constant throughout the samples within a given assay.
# [2] = test system: SW480 colon cancer cells; assay: Immunoblot of cell cycle markers; assay type: cell-based, human; conditions: synchronized SW480
# Experimental: Immunoblotting (additional method). After treatment, floating cells were collected, and adherent cells were trypsinized, washed with phosphate-buffered saline, and lysed with RIPA buffer (Sigma-Aldrich, St. Louis, Mo., USA) for thirty minutes to one hour at 4° C. Protein lysates were pelleted. The supernatant was collected. Total protein per sample was determined using a Pierce™ BCA Protein Assay Kit (Thermo Fisher Scientific, Waltham, Mass., USA). Proteins were denatured using 1× NuPAGE® LDS sample buffer (Thermo Fisher Scientific, Waltham, Mass., USA) and reduced with 2-mercaptoethanol (Sigma-Aldrich, St. Louis, Mo., USA). Protein lysates were boiled for fifteen min at 95° C. After protein normalization, samples were loaded into NuPAGE™ Novex™ 4-12% Bis-Tris Protein Gels (Thermo Fisher Scientific, Waltham, Mass., USA). Gel electrophoresis was performed with NuPAGE™ MES SDS Running Buffer. Proteins were transferred onto an Immobilon-P membrane (PVDF, EMD Millipore, Taunton, Mass., USA) using a Bio-Rad system with a 10% Tris-Glycine and 10% methanol transfer buffer diluted in distilled and deionized water. Membranes were blocked with 10% milk in Tris-buffered saline with Tween 20 (TBST) solution. The membranes were incubated overnight with the primary antibody, washed with TBST, and incubated with secondary antibody for one hour. Primary antibody incubations were performed in 5% milk or 5% bovine serum albumin in TBST solution as per manufacturer instructions. Signal was detected using a chemiluminescent detection kit, followed by autoradiography. The following antibodies were used: p53 (1:1000, #sc-126, Santa Cruz Biotechnology, Santa Cruz, Calif., USA), p73 (1:1000, #A300-126A, Bethyl Laboratories), Noxa (1:250, #OP180, EMD Millipore, Taunton, Mass., USA), DR5 (#3696), cleaved PARP (#9546), phospho-RPA32/RPA2 (#54762), p-cdc2 (#9111), p-cdc25c, pH3 (#3377) (1:1,000; Cell Signaling Technology, Inc., Danvers, Mass. USA) and β-actin (1:10000, A5441, Sigma).
# as §1
SMILES,S-phase population [1],pcdc2(Tyr15) and pcdc25c(Ser16) expression ([2]; combination with etoposide),pcdc2(Tyr15) and pcdc25c(Ser16) protein expression ([2]; single agent)
"Cn1c(=O)c2c(ncn2C)n(C)c1=O [caffeine, reference compound]",comparable to the dimethyl sulfoxide vehicle control,decreased expression,–
"COc1cc([C@@H]2c3cc4c(cc3[C@@H](O[C@@H]3O[C@@H]5CO[C@@H](C)O[C@H]5[C@H](O)[C@H]3O)[C@H]3COC(=O)[C@H]23)OCO4)cc(OC)c1O [etoposide, reference compound]",–,–,enhances protein expression
